Experiments:
Format in all cases: in vivo
[1] = test system: Amaranthus retoflexus (AMARE); assay: Post-emergence biological efficacy, glasshouse pot test; settings: Amaranthus retroflexus, 312 h; post-emergence, 1,000 g/ha, evaluated after 13 days (100=total damage; 0=no damage); read-out: Percentage damage caused to weed species, AMARE
Outline: (§1)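 Plants were sown in standard soil and grown 8 days in a glasshouse (24/16° C. day/night, 14 hours light, 65% humidity), then sprayed post-emergence at 1000 or 250 g/ha from acetone/water (50:50) with 0.5% Tween 20. Damage was scored visually after 13 days (0 = none, 100 = total).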

[2] = test system: Echinochloa crus-galli (ECHCG); assay: as above; settings: 312 h, post-emergence, 1,000 g/ha, evaluated after 13 days (100=total damage; 0=no damage), read-out: Percentage damage caused to weed species, ECHCG
Outline: as §1

[3] = test system: Setaria faberi (SETFA); assay: as above; settings: 312 h, post-emergence, 1,000 g/ha, evaluated after 13 days (100=total damage; 0=no damage), read-out: Percentage damage caused to weed species, SETFA
Outline: as §1

[4] = test system: Alopecurus myosuroides (ALOMY); assay: as above; settings: 312 h, post-emergence, 1,000 g/ha, evaluated after 13 days (100=total damage; 0=no damage), read-out: Percentage damage caused to weed species, ALOMY
Outline: as §1

[5] = test system: Ipomea hederaceae (IPOHE); assay: as above; settings: Ipomoea hederacea, 312 h; post-emergence, 1,000 g/ha, evaluated after 13 days (100=total damage; 0=no damage); read-out: Percentage damage caused to weed species, IPOHE
Outline: as §1

[6] = test system: Solanum nigrum (SOLNI); assay: as above; settings: 312 h, post-emergence, 1,000 g/ha, evaluated after 13 days (100=total damage; 0=no damage), read-out: Percentage damage caused to weed species, SOLNI
Outline: as §1

[7] = test system: Amaranthus retoflexus (AMARE); assay: Pre-emergence biological efficacy, glasshouse pot test; settings: Amaranthus retroflexus, 312 h; pre-emergence, 1,000 g/ha, evaluated after 13 days (100=total damage; 0=no damage); read-out: Percentage damage AMARE
Outline: (§2)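 Compound was applied as a spray one day after sowing, at a final dose of 1000 or 250 g/ha. Plants grew under 14 h light, 24/16 °C and 65% humidity, and injury was assessed on day 13 on a 0–100 scale.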

[8] = test system: Echinochloa crus-galli (ECHCG); assay: as above; settings: 312 h, pre-emergence, 1,000 g/ha, evaluated after 13 days (100=total damage; 0=no damage), read-out: Percentage damage ECHCG
Outline: as §2

[9] = test system: Setaria faberi (SETFA); assay: as above; settings: 312 h, pre-emergence, 1,000 g/ha, evaluated after 13 days (100=total damage; 0=no damage), read-out: Percentage damage SETFA
Outline: as §2

[10] = test system: Alopecurus myosuroides (ALOMY); assay: as above; settings: 312 h, pre-emergence, 1,000 g/ha, evaluated after 13 days (100=total damage; 0=no damage), read-out: Percentage damage ALOMY
Outline: as §2

[11] = test system: Ipomea hederaceae (IPOHE); assay: as above; settings: Ipomoea hederacea, 312 h; pre-emergence, 1,000 g/ha, evaluated after 13 days (100=total damage; 0=no damage); read-out: Percentage damage IPOHE
Outline: as §2

[12] = test system: Solanum nigrum (SOLNI); assay: as above; settings: 312 h, pre-emergence, 1,000 g/ha, evaluated after 13 days (100=total damage; 0=no damage), read-out: Percentage damage SOLNI
Outline: as §2

## COC(=O)c1nc(C2CC2)nc(NCc2ccco2)c1Cl [Compound 4-125, 5-Chloro-2-cyclopropyl-4-(furan-2-ylmethyl-amino)-6-methoxy-carbonylpyrimidine]
[1]
  pest or weed control at 1000 g/ha: 100%
[2]
  pest or weed control at 1000 g/ha: 80%
[3]
  pest or weed control at 1000 g/ha: 90%
[4]
  pest or weed control at 1000 g/ha: 60%
[5]
  pest or weed control at 1000 g/ha: 100%
[6]
  pest or weed control at 1000 g/ha: 100%
[7]
  pest or weed control at 1000 g/ha: 100%
[8]
  pest or weed control at 1000 g/ha: 80%
[9]
  pest or weed control at 1000 g/ha: 80%
[10]
  pest or weed control at 1000 g/ha: 70%
[11]
  pest or weed control at 1000 g/ha: 100%
[12]
  pest or weed control at 1000 g/ha: 90%

## COC(=O)c1nc(C2CC2)nc(NCc2ccc(Br)o2)c1Cl [Compound 4-129, 4-(5-bromofuran-2-ylmethylamino)-5-chloro-2-cyclopropyl-6-methoxycarbonyl-pyrimidine]
[1]
  pest or weed control at 1000 g/ha: 100%
[2]
  pest or weed control at 1000 g/ha: 70%
[3]
  pest or weed control at 1000 g/ha: 90%
[4]
  pest or weed control at 1000 g/ha: 40%
[5]
  pest or weed control at 1000 g/ha: 100%
[6]
  pest or weed control at 1000 g/ha: 90%
[7]
  pest or weed control at 1000 g/ha: 100%
[8]
  pest or weed control at 1000 g/ha: 70%
[9]
  pest or weed control at 1000 g/ha: 40%
[10]
  pest or weed control at 1000 g/ha: 30%
[11]
  pest or weed control at 1000 g/ha: 100%
[12]
  pest or weed control at 1000 g/ha: 100%

## COC(=O)c1nc(C2CC2)nc(NCc2ccc(C)o2)c1Cl [Compound 4-135, 5-Chloro-2-cyclopropyl-6-methoxy carbonyl-4-(5-methylfuran-2-ylmethylamino)-pyrimidine]
[1]
  pest or weed control at 1000 g/ha: 100%
[2]
  pest or weed control at 1000 g/ha: 90%
[3]
  pest or weed control at 1000 g/ha: 90%
[4]
  pest or weed control at 1000 g/ha: 60%
[5]
  pest or weed control at 1000 g/ha: 100%
[6]
  pest or weed control at 1000 g/ha: 100%
[7]
  pest or weed control at 1000 g/ha: 100%
[8]
  pest or weed control at 1000 g/ha: 100%
[9]
  pest or weed control at 1000 g/ha: 90%
[10]
  pest or weed control at 1000 g/ha: 60%
[11]
  pest or weed control at 1000 g/ha: 100%
[12]
  pest or weed control at 1000 g/ha: 100%

## COC(=O)c1nc(C2CC2)nc(NCc2cccs2)c1Cl [Compound 4-140, 5-Chloro-2-cyclopropyl-6-methoxycarbonyl-4-(thiophen-2-ylmethylamino)-pyrimidine]
[1]
  pest or weed control at 1000 g/ha: 90%
[2]
  pest or weed control at 1000 g/ha: 60%
[3]
  pest or weed control at 1000 g/ha: 70%
[4]
  pest or weed control at 1000 g/ha: 30%
[5]
  pest or weed control at 1000 g/ha: 90%
[6]
  pest or weed control at 1000 g/ha: 90%
[7]
  pest or weed control at 1000 g/ha: 100%
[8]
  pest or weed control at 1000 g/ha: 40%
[9]
  pest or weed control at 1000 g/ha: 50%
[10]
  pest or weed control at 1000 g/ha: 20%
[11]
  pest or weed control at 1000 g/ha: 80%
[12]
  pest or weed control at 1000 g/ha: 100%

## COC(=O)c1nc(C2CC2)nc(NCc2ccsc2Br)c1Cl [Compound 4-143, 4-(2-Bromothiophen-3-ylmethylamino)-5-chloro-2-cyclopropyl-6-methoxycarbonyl-pyrimidine]
[1]
  pest or weed control at 1000 g/ha: 90%
[2]
  pest or weed control at 1000 g/ha: 60%
[3]
  pest or weed control at 1000 g/ha: 70%
[4]
  pest or weed control at 1000 g/ha: 20%
[5]
  pest or weed control at 1000 g/ha: 100%
[6]
  pest or weed control at 1000 g/ha: 90%
[7]
  pest or weed control at 1000 g/ha: 70%
[8]
  pest or weed control at 1000 g/ha: 20%
[9]
  pest or weed control at 1000 g/ha: 0%
[10]
  pest or weed control at 1000 g/ha: 0%
[11]
  pest or weed control at 1000 g/ha: 80%
[12]
  pest or weed control at 1000 g/ha: 50%

## COC(=O)c1nc(C2CC2)nc(NCc2cnc(Cl)s2)c1Cl [Compound 4-146, 5-Chloro-4-(2-chlorothiazol-5-ylmethylamino)-2-cyclopropyl-6-methoxycarbonyl-pyrimidine]
[1]
  pest or weed control at 1000 g/ha: 90%
[2]
  pest or weed control at 1000 g/ha: 50%
[3]
  pest or weed control at 1000 g/ha: 70%
[4]
  pest or weed control at 1000 g/ha: 20%
[5]
  pest or weed control at 1000 g/ha: 80%
[6]
  pest or weed control at 1000 g/ha: 90%
[7]
  pest or weed control at 1000 g/ha: 70%
[8]
  pest or weed control at 1000 g/ha: 50%
[9]
  pest or weed control at 1000 g/ha: 0%
[10]
  pest or weed control at 1000 g/ha: 50%
[11]
  pest or weed control at 1000 g/ha: 100%
[12]
  pest or weed control at 1000 g/ha: 40%

## COC(=O)c1nc(C2CC2)nc(NCc2ncco2)c1Cl [Compound 4-148, 5-Chloro-2-cyclopropyl-6-methoxycarbonyl-4-(oxazol-2-ylmethylamino)-pyrimidine]
[1]
  pest or weed control at 1000 g/ha: 100%
[2]
  pest or weed control at 1000 g/ha: 40%
[3]
  pest or weed control at 1000 g/ha: 50%
[4]
  pest or weed control at 1000 g/ha: 20%
[5]
  pest or weed control at 1000 g/ha: 60%
[6]
  pest or weed control at 1000 g/ha: 80%
[7]
  pest or weed control at 1000 g/ha: 80%
[8]
  pest or weed control at 1000 g/ha: 30%
[9]
  pest or weed control at 1000 g/ha: 20%
[10]
  pest or weed control at 1000 g/ha: 20%
[11]
  pest or weed control at 1000 g/ha: 100%
[12]
  pest or weed control at 1000 g/ha: 90%

## COC(=O)c1nc(C2CC2)nc(NCc2ccccn2)c1Cl [Compound 4-151, 5-Chloro-2-cyclopropyl-6-methoxycarbonyl-4-(pyrid-2-yl-methylamino)-pyrimidine]
[1]
  pest or weed control at 1000 g/ha: 100%
[2]
  pest or weed control at 1000 g/ha: 80%
[3]
  pest or weed control at 1000 g/ha: 80%
[4]
  pest or weed control at 1000 g/ha: 60%
[5]
  pest or weed control at 1000 g/ha: 80%
[6]
  pest or weed control at 1000 g/ha: 80%
[7]
  pest or weed control at 1000 g/ha: 100%
[8]
  pest or weed control at 1000 g/ha: 60%
[9]
  pest or weed control at 1000 g/ha: 50%
[10]
  pest or weed control at 1000 g/ha: 40%
[11]
  pest or weed control at 1000 g/ha: 90%
[12]
  pest or weed control at 1000 g/ha: 90%

## COC(=O)c1nc(C2CC2)nc(NCc2ncccc2Cl)c1Cl [Compound 4-152, 5-Chloro-4-(3-chloropyrid-2-ylmethylamino)-2-cyclopropyl-6-methoxycarbonyl-pyrimidine]
[1]
  pest or weed control at 1000 g/ha: 100%
[2]
  pest or weed control at 1000 g/ha: 80%
[3]
  pest or weed control at 1000 g/ha: 90%
[4]
  pest or weed control at 1000 g/ha: 50%
[5]
  pest or weed control at 1000 g/ha: 100%
[6]
  pest or weed control at 1000 g/ha: 90%
[7]
  pest or weed control at 1000 g/ha: 70%
[8]
  pest or weed control at 1000 g/ha: 70%
[9]
  pest or weed control at 1000 g/ha: 40%
[10]
  pest or weed control at 1000 g/ha: 20%
[11]
  pest or weed control at 1000 g/ha: 100%
[12]
  pest or weed control at 1000 g/ha: 80%

## COC(=O)c1nc(C2CC2)nc(NCc2ncccc2C)c1Cl [Compound 4-153, 5-Chloro-2-cyclopropyl-6-methoxycarbonyl-4-(3-methylpyrid-2-ylmethylamino)-pyrimidine]
[1]
  pest or weed control at 1000 g/ha: 100%
[2]
  pest or weed control at 1000 g/ha: 80%
[3]
  pest or weed control at 1000 g/ha: 90%
[4]
  pest or weed control at 1000 g/ha: 70%
[5]
  pest or weed control at 1000 g/ha: 100%
[6]
  pest or weed control at 1000 g/ha: 100%
[7]
  pest or weed control at 1000 g/ha: 100%
[8]
  pest or weed control at 1000 g/ha: 60%
[9]
  pest or weed control at 1000 g/ha: 60%
[10]
  pest or weed control at 1000 g/ha: 50%
[11]
  pest or weed control at 1000 g/ha: 100%
[12]
  pest or weed control at 1000 g/ha: 100%

## COC(=O)c1nc(C2CC2)nc(NCc2ncc(C(F)(F)F)cc2Cl)c1Cl [Compound 4-155, 5-Chloro-4-(3-chloro-5-trifluoromethylpyrid-2-ylmethylamino)-2-cyclopropyl-6-methoxycarbonyl-pyrimidine]
[1]
  pest or weed control at 1000 g/ha: 100%
[2]
  pest or weed control at 1000 g/ha: 70%
[3]
  pest or weed control at 1000 g/ha: 70%
[4]
  pest or weed control at 1000 g/ha: 30%
[5]
  pest or weed control at 1000 g/ha: 90%
[6]
  pest or weed control at 1000 g/ha: 90%
[7]
  pest or weed control at 1000 g/ha: 90%
[8]
  pest or weed control at 1000 g/ha: 80%
[9]
  pest or weed control at 1000 g/ha: 20%
[10]
  pest or weed control at 1000 g/ha: 20%
[11]
  pest or weed control at 1000 g/ha: 90%
[12]
  pest or weed control at 1000 g/ha: 70%

From US20110086759A1, “CHEMICAL COMPOUNDS” (SYNGENTA CROP PROTECTION, INC., priority 2007, published 2011)
